Experimental data reported in patent publication US20080300298A1, “Honokiol Derivates For the Treatment of Proliferative Disorders” (priority 2005, published 2008).
Where two headings read alike, the source gives them in different places.

Tests used:
HIV-1 = experiment: HIV assay in PBM cells (RT activity); format: cell-based; settings: Human immunodeficiency virus 1, PBMC, HIV-1 in human PBM cells; for EC50: read-out: Activity anti-VIH-1 on PBM cells EC50; for EC90: read-out: Activity anti-VIH-1 on PBM cells EC90
Description: The antiviral activity of the synthesized compounds and honokiol were evaluated against HIV-1 in human peripheral blood mononuclear (PBM) cells (Table 4).
Human peripheral blood mononuclear (PBM) cells (which can be obtained from Atlanta Red Cross) can be isolated by Ficoll-Hypaque discontinuous gradient centrifugation from healthy seronegative donors. Cells can be stimulated with phytohemagglutinin A (Difco, Sparks, Md.) for 2-3 days prior to use. HIV-1, such as HIV-1LAI can be obtained from the Centers for Disease Control and Prevention (Atlanta, Ga.), and can be used as the standard reference virus for the antiviral assays. The molecular infectious clones HIV-1xxBru and HIV-1M184Vpin can be obtained from Dr. John Mellors (University of Pittsburgh). Infections can be done in bulk for one hour, either with 100 TCID50/1×10^7 cells for a flask (T25) assay or with 200 TCID50/6×10^5 cells/well for a 24 well plate assay. Cells can be added to a plate or flask containing a ten-fold serial dilution of the test compound. Assay medium can be RPMI-1640 supplemented with heat inactivated 16% fetal bovine serum, 1.6 mM L-glutamine, 80 IU/ml penicillin, 80 μg/ml streptomycin, 0.0008% DEAE-Dextran, 0.045% sodium bicarbonate, and 26 IU/ml recombinant interleukin-2 (Chiron Corp, Emeryville, Calif.). AZT can be used as a positive control for the assay. Untreated and uninfected PBM cells can be grown in parallel at equivalent cell concentrations as controls. The cell cultures can be maintained in a humidified 5% CO2-air at 37° C. for 5 days and supernatants can be collected for reverse transcriptase (RT) activity.
Supernatants can be centrifuged at 12,000 rpm for 2 hours to pellet the virus. The pellet can be solubilized with vortexing in 100 μl virus solubilization buffer (VSB) containing 0.5% Triton X-100, 0.8 M NaCl, 0.5 mM phenylmethylsulfonyl fluoride, 20% glycerol, and 0.05 M Tris, pH 7.8. Ten μL of each sample can be added to 75 μL RT reaction mixture (0.06 M Tris, pH 7.8, 0.012 M MgCl2, 0.006 M dithiothreitol, 0.006 mg/ml poly (rA)n, oligo (dT)12-18, 96 μg/ml dATP, and 1 μM of 0.08 mCi/ml ^3H-thymidine triphosphate (Moravek Biochemicals, Brea, Calif.) and can be incubated at 37° C. for 2 hours. The reaction can be stopped by the addition of 100 μL 10% trichloroacetic acid containing 0.05% sodium pyrophosphate. The acid insoluble product can be harvested onto filter paper using a Packard Harvester (Meriden, Conn.), and the RT activity can be read on a Packard Direct Beta Counter (Meriden, Conn.). The RT results can be expressed in counts per minute (CPM) per milliliter. The antiviral 50% effective concentration (EC50) and 90% effective concentration (EC90) can be determined from the concentration-response curve using the median effect method (Belen'kii, S. M.; Schinazi, R. S. Multiple drug effect analysis with confidence interval. Antiviral. Res. 1994, 25, 1-11).

cytotoxicity assay (MTT) [1] = format: cell-based, human; settings: human
Description: (§1) The cytotoxicity of the honokiol and analogues thereof were assessed in human PBM, CEM and Vero cells (Table 4). Compounds can be evaluated for their potential toxic effects on uninfected human PBM cells, in CEM (T-lymphoblastoid cell line obtained from American Type Culture Collection, Rockville, Md.) and Vero (African green monkey kidney) cells. PBM cells can be obtained from whole blood of healthy seronegative donors (HIV-1) by single-step Ficoll-Hypaque discontinous gradient centrifugation. […] All of the cells can be plated in 96-well cell culture plates containing ten-fold serial dilutions of the test drug. […] At the end of incubation, MTT tetrazolium dye solution (Cell titer 96®, Promega, Madison, Wis.) can be added to each well and incubated overnight. The reaction can be stopped with stop solubilization solution (Promega, Madison, Wis.). […] The plates can be read at a wavelength of 570 nm using an ELISA plate reader (Bio-tek instruments, Inc., Winooski, Vt., Model #EL 312e). The 50% inhibition concentration (IC50) can be determined from the concentration-response curve using the median effect method.

cytotoxicity assay (MTT) [2] = format: cell-based; settings: for EC50 at 3 days: African green monkey; for EC50 at 4 days: human
Description: as §1

[3] = test system: SVR (a transformed endothelial cell line); experiment: SVR cellular proliferation assay; format: cell-based; settings: Mus musculus, SVR cells; for inhibition at 10 µg/mL: 10 μg/mL; for inhibition at 15 µg/mL: 15 μg/mL
Description: The SVR (a transformed endothelial cell line) proliferation assay can be used as a direct measure of antiangiogenic and antitumor activity. This assay serves as a high throughput screen that compares the effects of a compound on proliferation of SVR cells versus an immortalized endothelial cell line, MS1. […] SVR cells were plated in 24-well dishes. The next day, the medium was replaced with fresh medium containing the inhibitors or vehicle controls. Cells were incubated at 37° C. for 72 h (Arbiser, J. L., et al. 1999 J. Am. Acad. Dermatol. 40, 925-929; LaMontagne, K. R., et al. 2000 Am. J. Pathol. 157, 1937-1945), and cell number was determined in triplicate using a Coulter Counter (Hialeah, Fla.). Immortalized and K-Ras transformed rat epithelial cells (RIEpZip and […]) and fibroblasts (NIH3T3 pZip and NIH3T3 pZipK-Ras12V) were maintained at 37° C., 10% CO2, in Dulbecco's modified Eagle's medium supplemented with 5% fetal calf serum (RIE) or 10% calf serum (NIH3T3) (Oldham, S. M., et al. 1996 Proc. Natl. Acad. Sci. U.S.A. 93, 6924-6928; Pruitt, K., et al. 2000 J. Biol. Chem. 275, 40916-40924). Cells were plated at 10^5/well in six-well plates.

[4] = uninfected PBM cells, read-out: Cytotoxicity (EC50-μM) in: PBM
[5] = Vero cells, read-out: Cytotoxicity (EC50-μM) in: VERO
[6] = CEM cells, read-out: Cytotoxicity (EC50-μM) in: CEM
[7] = Vero kidney cells, Vero cells, read-out: Cytotoxicity (EC50-μM) in: VERO
[8] = CEM T-lymphoblastoid cells, CEM cells, read-out: Cytotoxicity (EC50-μM) in: CEM

| Compound | inhibition at 10 µg/mL [3] | inhibition at 15 µg/mL [3] | further results |
| --- | --- | --- | --- |
| C=CCc1ccc(O)c(-c2cc(CC=C)ccc2O)c1 |  |  | EC50 (HIV-1): 69.3 µM; EC90 (HIV-1): > 100 µM; EC50 at 5 days (cytotoxicity assay (MTT) [1]; [4]): 38.6 µM; EC50 at 3 days (cytotoxicity assay (MTT) [2]; [5]): 79.9 µM; EC50 at 4 days (cytotoxicity assay (MTT) [2]; [6]): 99.6 µM |
| C=CCc1ccc(OS(=O)(=O)c2ccccc2)c(-c2ccc(OS(=O)(=O)c3ccccc3)c(CC=C)c2)c1 | 35.3% | 37.9% |  |
| C=CCc1ccc(O)c(CC=C)c1O | 37.2% | 36% |  |
| C=CCc1cc(-c2cccc(CC=C)c2O)ccc1O | 74.2% | 81.6% |  |
| C=CCc1c(O)ccc2c3ccccc3n(CC=C)c12 | 69.7% | 78.7% |  |
| C=CCc1cc2c3ccccc3n(CC=C)c2cc1O | 68.9% | 76.1% |  |
| O=C(CCc1ccccc1)Oc1cc(OC(=O)CCc2ccccc2)cc(OC(=O)CCc2ccccc2)c1 | 5% | 25% |  |
| C=CCc1cccc(-c2ccccc2O)c1O | 47.1% | 59.3% |  |
| C=CCOc1ccc(/C=C/C(=O)CC(=O)/C=C/c2ccc(OCC=C)c(OC)c2)cc1OC | 70% | 67.9% |  |
| C=CCOc1ccc(/C=C/C(=O)CC(=O)/C=C/c2ccc(O)c(OC)c2)cc1OC | 75.2% | 78.8% |  |
| O=C(/C=C/c1ccccc1)Oc1cc(OC(=O)/C=C/c2ccccc2)cc(OC(=O)/C=C/c2ccccc2)c1 | 13.4% | 8.6% |  |
| C=CCc1cc(-c2ncc(O)cn2)ccc1O | 4.4% | 10% |  |
| C=CCc1cc(C(C)(C)c2ccc(O)c(CC=C)c2)ccc1O | 32.9% | 57.1% |  |
| C=CCOc1cc2c(cc1OCC=C)C1c3ccc(OCC=C)c(OCC=C)c3OCC1(O)C2 (stereo not drawn) | 13.8% | 41.8% |  |
| C=CCc1cc(C(=C(Cl)Cl)c2ccc(O)c(CC=C)c2)ccc1O | 53.6% | 75.6% |  |
| C=CCc1cc(C(c2ccc(O)c(CC=C)c2)c2ccccn2)ccc1O | 25.2% | 46.1% |  |
| C=CCc1ccc2c(c1)-c1cc(CC=C)ccc1OC(C)(C)O2 [drawing 42] |  |  | EC50 (HIV-1): 13.6 µM; EC90 (HIV-1): 43.3 µM; EC50 at 5 days (cytotoxicity assay (MTT) [1]; [4]): 75.3 µM; EC50 at 3 days (cytotoxicity assay (MTT) [2]; [7]): > 100 µM; EC50 at 4 days (cytotoxicity assay (MTT) [2]; [8]): 11.6 µM |
| C=CCc1ccc(O)c(-c2ccc(O)c(CC=C)c2)c1 [drawing 43] |  |  | EC50 (HIV-1): 3.3 µM; EC90 (HIV-1): 22.7 µM; EC50 at 5 days (cytotoxicity assay (MTT) [1]): 16.1 µM; EC50 at 3 days (cytotoxicity assay (MTT) [2]): 22.5 µM; EC50 at 4 days (cytotoxicity assay (MTT) [2]): 10.9 µM |
| CCCc1ccc(O)c(-c2ccc(O)c(CCC)c2)c1 [drawing 44] |  |  | EC50 (HIV-1): 16.9 µM; EC90 (HIV-1): 69.4 µM; EC50 at 5 days (cytotoxicity assay (MTT) [1]; [4]): 45.9 µM; EC50 at 3 days (cytotoxicity assay (MTT) [2]; [7]): 19.8 µM; EC50 at 4 days (cytotoxicity assay (MTT) [2]; [8]): 10.4 µM |
| C=CCc1ccc(OC)c(-c2ccc(OC)c(CC=C)c2)c1 [drawing 45] |  |  | EC50 (HIV-1): 54.3 µM; EC90 (HIV-1): > 100 µM; EC50 at 5 days (cytotoxicity assay (MTT) [1]; [4]): > 100 µM; EC50 at 3 days (cytotoxicity assay (MTT) [2]; [7]): > 100 µM; EC50 at 4 days (cytotoxicity assay (MTT) [2]; [8]): 19.1 µM |
| C=CCc1cccc(-c2cccc(CC=C)c2O)c1O [drawing 46] |  |  | EC50 (HIV-1): 34.8 µM; EC90 (HIV-1): 63 µM; EC50 at 5 days (cytotoxicity assay (MTT) [1]; [4]): > 100 µM; EC50 at 3 days (cytotoxicity assay (MTT) [2]; [7]): > 100 µM; EC50 at 4 days (cytotoxicity assay (MTT) [2]; [8]): > 100 µM |
| C=CCc1cc(-c2ccc(O)c(CC=C)c2)ccc1O [drawing 47] |  |  | EC50 (HIV-1): 19.4 µM; EC90 (HIV-1): 66.4 µM; EC50 at 5 days (cytotoxicity assay (MTT) [1]; [4]): > 100 µM; EC50 at 3 days (cytotoxicity assay (MTT) [2]; [5]): 33.2 µM; EC50 at 4 days (cytotoxicity assay (MTT) [2]; [6]): 23 µM |
| C=CCc1ccc(O)c(-c2ccc(O)c(CC=C)c2)c1 [drawing 48] | 59.9% | 85% |  |
| CCCc1ccc(O)c(-c2ccc(O)c(CCC)c2)c1 [drawing 49] | 79.2% | 89.6% |  |
| C=CCc1cccc(-c2cccc(CC=C)c2O)c1O [drawing 50] | 40.8% | 57.2% |  |
| C=CCc1ccc2c(c1)-c1cc(CC=C)ccc1OC(C)(C)O2 [drawing 54] | 61.9% | 59.7% |  |
| C=CCc1ccc(OC)c(-c2ccc(OC)c(CC=C)c2)c1 [drawing 55] | 40.6% | 47.2% |  |
